Source: patent publication US20120232162A1, “USE OF LUTEIN CONTAINING COMPOSITIONS TO IMPROVE CERTAIN ASPECTS OF MEMORY” (priority 2009, published 2012)
Entries after “also recorded” stand apart in the source; their conditions may differ.

What was measured:
[1] = test system: primary culture of neurons; assay: glutamate neurotoxicity paradigm in primary neuron culture (neurofilament network / neurite length); assay type: cell-based; conditions: lutein pre-treatment from day 5, 3 concentrations, n=6; 250 μM glutamate for 6 hours on day 12; glutamate control set as 100%; p<0.05 and <0.01
From the text: Glutamate is one of the principal excitatory amino acid in the central nervous system, and as such plays a crucial role in normal physiology. Perturbations in normal regulatory mechanisms of glutamate functions may lead to excessive, neurotoxic activation of glutamate receptors in the brain, which may be detrimental to learning and memory performance in the normal and aging brain. Using a primary culture of neurons, these conditions can be reproduced by glutamate intoxication. Impact on cultured neurons was indicated by morphological changes in the neurofilament cytoskeleton network of the neurons.
Neuroprotective effects of single compounds and combinations of compounds were evaluated by analyzing network density using labelling with an anti-neurofilament antibody (heavy chain 200 kD) specific to mature neuron neurites.
Riluzole (a pharmacological neuroprotective agent) and MK801 were used as inhibitory compounds counteracting neurotoxic effects of glutamate resulting in outgrowth of neurites. Inhibitory MK801 (complete blockage of NMDA-type glutamate receptors) was powerful and led to 100% recovery after intoxication.
Neuroprotective functions of lutein were tested using the schedule shown below:
On day 5, the culture medium was replaced by control culture medium or medium containing lutein (3 concentrations) within physiological range, n=6 per concentration). […]

mice [2] = assay: IntelliCage associative memory paradigm (negative reinforcement, stress); assay type: in vivo
From the text: (§1) The cognitive performance of mice treated with lutein and/or zeaxanthin was compared with that of vehicle-treated, age-matched controls in the IntelliCage®, a system which enables automated monitoring of spontaneous and learning behavior of mice in a homecage-like environment (NewBehavior AG, Zurich, Switzerland, www.newbehavior.com; Galsworthy et al. 2005, Behav Brain Res 157: 211-217; Onishchenko et al. 2007, Toxicol Sci 97: 428-437, Mechan et al., 2009, J. Neurosci. Methods, 180:43-51). Individual mice are recognized by sensors within the IntelliCage corners reading a transponder (reference identification tag) which is implanted into the scruff of the mouse's neck.
(§2) Each IntelliCage® is essentially a large cage (37.5×55×20.5 cm), into which is placed a metal frame, comprising four recording (operant) chambers. The recording chambers fit into the corners of the cage, each covering a 15×15×21 cm right-angled triangular area of floor space. In-cage antennae enable automatic monitoring of each individual mouse's corner visits; photo-beams within each corner enable automated recording of individual nosepokes and licks of the water bottle spouts. Four triangular mouse shelters are placed in the center of the cage, above which is situated a food hopper, enabling ad libitum access to food.
Each recording chamber comprises: (1) a plastic ring (30 mm inner diameter) which serves as an entrance into the chamber and houses the circular antenna which registers corner visits; (2) a grid floor, which the mice sit on once they have entered the chamber; (3) two circular openings (13 mm diameter) which enable access to water bottle spouts; each opening is crossed by photo-beams which register nose-pokes; (4) two motorized doors, which allow (door open) or prohibit (door closed) access to the water bottle spouts; (5) two water bottles; (6) tubing, through which air-puffs can be delivered as aversive stimulation; (7) different colored light diodes, which can be used for conditioning experiments (Mechan et al., 2009 J Neurosci Methods 180:43-51). […]

mice [3] = assay: IntelliCage place learning paradigm (spatial learning and memory); assay type: in vivo; conditions: Lutein 9 mg/kg BW in feed, vs placebo-fed littermates
From the text: as §1
as §2, with “food. […]” for “food.”

mice [4] = assay: IntelliCage side discrimination paradigm (attention, associative learning and memory); assay type: in vivo; conditions: Lutein 9 mg/kg BW in feed, vs vehicle
From the text: as §1
Each IntelliCage® is essentially a large cage (37.5×55×20.5 cm), into which is placed a metal frame, comprising four recording (operant) chambers. The recording chambers fit into the corners of the cage, each covering a 15×15×21 cm right-angled triangular area of floor space. […]
This module was designed to test attention and associative memory. […] During this module the place errors (i.e. percentage of visits to incorrect corners) and side errors (i.e. percentage of nosepokes at the incorrect side of the correct corner) were recorded.

[5] = lutein alone; chronic treatment (4 months); WO 2006/116755; cited from earlier work
[6] = second set of experiments, younger animals, intermediate lutein dose (of 8, 16 and 30 mg/kg/d), vs control group

CC1=C[C@H](O)CC(C)(C)[C@H]1/C=C/C(C)=C/C=C/C(C)=C/C=C/C=C(C)/C=C/C=C(C)/C=C/C1=C(C)C[C@@H](O)CC1(C)C [lutein]
protection of neurons from excitotoxic glutamate neuro-toxicity (neurite length) [1]: significantly protected | learning and memorizing the correct place to access water under stressful conditions (air puff punishment) (mice [2]; Lutein 9 mg/kg BW in feed, vs vehicle-treated littermates): significantly better | performance in the associative memory task, place errors (mice [2]; [6]): significant improvement | performance in the associative memory task, side errors (mice [2]; [6]): significant improvement | using spatial cues to find and memorize the location of water (mice [3]): significant improvement; also recorded: significantly better | side error rate (percentage of nosepokes at the incorrect side of the correct corner) (mice [4]; active phase): significantly lower | place error rate (percentage of visits to incorrect corners) (mice [4]; active phase (first 12 h)): higher level of attention and an improved memory performance; also recorded: significantly lower | Verbal Fluency test [5]: significant improvement | other cognitive- or mood assessment-tests [5]: did not result in improvements
